Experimental data from ChEMBL document CHEMBL5465560, “Selectivity Literature for EUbOPEN Chemogenomic Library” (2024).

Columns and labels:
[1] = biological target: B2 bradykinin receptor (Homo sapiens) (UniProt P30411); experiment: Selectivity interaction (Eurofins CEREP Diversity Profile (receptors and ion channels)) EUB0000279b BDKRB2; details: at 10 µM
[2] = biological target: Dual specificity tyrosine-phosphorylation-regulated kinase 1A (Homo sapiens, UniProt Q13627); experiment: Selectivity interaction (KinomeScan (DiscoverX)) EUB0001550a DYRK1A; details: at 1 µM
[3] = biological target: MAP kinase-interacting serine/threonine-protein kinase 1 (Homo sapiens) (UniProt Q9BUB5); details: at 10 µM
Sequence of MAP kinase-interacting serine/threonine-protein kinase 1 (Homo sapiens) (Q9BUB5 whole entry, looked up): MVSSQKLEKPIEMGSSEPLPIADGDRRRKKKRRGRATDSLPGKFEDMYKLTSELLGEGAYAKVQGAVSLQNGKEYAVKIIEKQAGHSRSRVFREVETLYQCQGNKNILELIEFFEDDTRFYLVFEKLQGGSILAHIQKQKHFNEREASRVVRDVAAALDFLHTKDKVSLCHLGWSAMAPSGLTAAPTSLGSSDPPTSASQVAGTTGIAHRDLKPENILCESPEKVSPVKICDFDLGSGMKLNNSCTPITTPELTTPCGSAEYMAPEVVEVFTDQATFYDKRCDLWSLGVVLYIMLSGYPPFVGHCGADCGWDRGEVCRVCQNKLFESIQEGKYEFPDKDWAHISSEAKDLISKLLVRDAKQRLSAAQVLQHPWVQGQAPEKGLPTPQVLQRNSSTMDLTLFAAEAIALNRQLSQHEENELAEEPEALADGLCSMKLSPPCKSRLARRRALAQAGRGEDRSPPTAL

[4] = biological target: Calcium/calmodulin-dependent protein kinase type 1D (Homo sapiens) (UniProt Q8IU85); experiment: Selectivity interaction (ActivX KiNativ screen (kinase selectivity in THP-1 cell lysates)) EUB0000639a CAMK1D; format: subcellular; details: lysate, at 1 µM
Sequence of Calcium/calmodulin-dependent protein kinase type 1D (Homo sapiens) (Q8IU85 whole entry, looked up): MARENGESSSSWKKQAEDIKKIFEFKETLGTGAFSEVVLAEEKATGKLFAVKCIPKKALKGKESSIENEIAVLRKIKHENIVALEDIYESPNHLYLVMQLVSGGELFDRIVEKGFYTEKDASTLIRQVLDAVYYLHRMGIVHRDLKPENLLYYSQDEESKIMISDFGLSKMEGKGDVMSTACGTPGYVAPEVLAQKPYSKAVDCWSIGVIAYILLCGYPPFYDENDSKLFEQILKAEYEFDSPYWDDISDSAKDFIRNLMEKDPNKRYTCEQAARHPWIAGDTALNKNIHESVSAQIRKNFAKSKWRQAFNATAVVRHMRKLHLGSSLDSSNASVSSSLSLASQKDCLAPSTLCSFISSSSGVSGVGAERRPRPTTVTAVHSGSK

[5] = biological target: SRSF protein kinase 2 (Homo sapiens) (UniProt P78362); experiment: Selectivity interaction (Kinase panel (Invitrogen)) EUB0000639a SRPK2; details: at 200 nM
Sequence of SRSF protein kinase 2 (Homo sapiens) (P78362 whole entry, looked up): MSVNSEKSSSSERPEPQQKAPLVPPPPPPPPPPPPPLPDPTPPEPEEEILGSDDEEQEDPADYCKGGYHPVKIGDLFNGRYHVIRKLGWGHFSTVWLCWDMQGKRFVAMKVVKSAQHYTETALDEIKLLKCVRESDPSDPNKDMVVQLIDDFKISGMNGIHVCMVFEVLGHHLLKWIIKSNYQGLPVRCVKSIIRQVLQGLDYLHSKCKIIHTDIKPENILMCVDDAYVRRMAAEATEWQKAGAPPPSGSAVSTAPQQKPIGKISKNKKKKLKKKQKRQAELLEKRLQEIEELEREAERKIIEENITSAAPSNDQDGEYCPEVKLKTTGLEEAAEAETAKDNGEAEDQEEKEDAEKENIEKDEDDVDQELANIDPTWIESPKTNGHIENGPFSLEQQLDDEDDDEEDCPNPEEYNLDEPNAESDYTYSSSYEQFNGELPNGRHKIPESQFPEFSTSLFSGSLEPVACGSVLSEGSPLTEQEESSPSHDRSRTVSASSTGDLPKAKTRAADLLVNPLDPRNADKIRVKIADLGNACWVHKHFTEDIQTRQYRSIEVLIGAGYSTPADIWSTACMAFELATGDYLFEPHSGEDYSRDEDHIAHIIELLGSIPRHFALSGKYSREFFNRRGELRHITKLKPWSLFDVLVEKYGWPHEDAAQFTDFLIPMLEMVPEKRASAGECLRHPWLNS

[6] = biological target: Tyrosine-protein kinase Fgr (Homo sapiens) (UniProt P09769); details: at 10 µM
Sequence of Tyrosine-protein kinase Fgr (Homo sapiens) (P09769 2-529 limits assumed): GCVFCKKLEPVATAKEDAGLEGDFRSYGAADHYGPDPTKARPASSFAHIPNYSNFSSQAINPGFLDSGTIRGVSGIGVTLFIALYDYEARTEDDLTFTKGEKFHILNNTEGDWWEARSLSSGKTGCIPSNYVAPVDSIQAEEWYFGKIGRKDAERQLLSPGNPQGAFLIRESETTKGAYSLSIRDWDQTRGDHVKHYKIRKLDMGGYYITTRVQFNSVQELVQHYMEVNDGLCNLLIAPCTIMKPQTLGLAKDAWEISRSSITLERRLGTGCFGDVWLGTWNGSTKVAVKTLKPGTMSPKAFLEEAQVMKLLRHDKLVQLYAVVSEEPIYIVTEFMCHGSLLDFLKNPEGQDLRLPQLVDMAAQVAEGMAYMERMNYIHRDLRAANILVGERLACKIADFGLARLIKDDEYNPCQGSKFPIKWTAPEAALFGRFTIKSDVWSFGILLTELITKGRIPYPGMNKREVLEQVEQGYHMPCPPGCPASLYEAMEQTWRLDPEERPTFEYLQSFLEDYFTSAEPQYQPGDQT

[7] = biological target: T1, Serine/threonine-protein kinase ULK1 (Homo sapiens) (UniProt O75385); details: at 10 µM
T1 sequence (whole entry): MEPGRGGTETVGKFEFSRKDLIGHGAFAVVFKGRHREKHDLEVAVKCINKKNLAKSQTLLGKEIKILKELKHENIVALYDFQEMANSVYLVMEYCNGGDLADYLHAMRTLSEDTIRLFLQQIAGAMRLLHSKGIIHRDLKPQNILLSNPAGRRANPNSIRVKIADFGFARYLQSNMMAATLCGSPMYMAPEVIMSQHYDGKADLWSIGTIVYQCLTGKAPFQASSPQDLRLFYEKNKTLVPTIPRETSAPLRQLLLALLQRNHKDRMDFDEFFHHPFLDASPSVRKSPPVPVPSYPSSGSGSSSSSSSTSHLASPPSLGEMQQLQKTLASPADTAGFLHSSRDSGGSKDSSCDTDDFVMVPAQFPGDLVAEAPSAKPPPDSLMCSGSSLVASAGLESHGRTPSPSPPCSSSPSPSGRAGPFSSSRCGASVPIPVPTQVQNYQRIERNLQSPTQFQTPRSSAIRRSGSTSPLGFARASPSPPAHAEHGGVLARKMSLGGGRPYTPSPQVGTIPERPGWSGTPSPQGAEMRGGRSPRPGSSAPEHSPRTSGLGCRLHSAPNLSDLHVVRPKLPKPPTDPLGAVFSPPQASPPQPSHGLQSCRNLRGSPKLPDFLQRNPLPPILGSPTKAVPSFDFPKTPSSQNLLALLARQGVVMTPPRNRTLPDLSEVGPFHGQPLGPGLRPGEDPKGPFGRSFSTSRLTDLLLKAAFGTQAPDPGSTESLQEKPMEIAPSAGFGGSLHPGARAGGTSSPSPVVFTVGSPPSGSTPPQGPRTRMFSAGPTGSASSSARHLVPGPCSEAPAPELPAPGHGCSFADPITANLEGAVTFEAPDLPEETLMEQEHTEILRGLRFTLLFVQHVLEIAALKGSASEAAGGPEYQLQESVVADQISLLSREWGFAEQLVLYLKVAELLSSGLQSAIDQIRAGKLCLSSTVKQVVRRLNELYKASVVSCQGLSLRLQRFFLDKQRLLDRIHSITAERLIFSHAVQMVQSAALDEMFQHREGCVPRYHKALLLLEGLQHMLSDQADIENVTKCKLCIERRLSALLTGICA

[8] = biological target: Vascular endothelial growth factor receptor 1 (Homo sapiens) (UniProt P17948); experiment: Selectivity interaction (KinomeScan (DiscoverX)) EUB0001619a FLT1; details: at 1 µM
Sequence of Vascular endothelial growth factor receptor 1 (Homo sapiens) (P17948 whole entry): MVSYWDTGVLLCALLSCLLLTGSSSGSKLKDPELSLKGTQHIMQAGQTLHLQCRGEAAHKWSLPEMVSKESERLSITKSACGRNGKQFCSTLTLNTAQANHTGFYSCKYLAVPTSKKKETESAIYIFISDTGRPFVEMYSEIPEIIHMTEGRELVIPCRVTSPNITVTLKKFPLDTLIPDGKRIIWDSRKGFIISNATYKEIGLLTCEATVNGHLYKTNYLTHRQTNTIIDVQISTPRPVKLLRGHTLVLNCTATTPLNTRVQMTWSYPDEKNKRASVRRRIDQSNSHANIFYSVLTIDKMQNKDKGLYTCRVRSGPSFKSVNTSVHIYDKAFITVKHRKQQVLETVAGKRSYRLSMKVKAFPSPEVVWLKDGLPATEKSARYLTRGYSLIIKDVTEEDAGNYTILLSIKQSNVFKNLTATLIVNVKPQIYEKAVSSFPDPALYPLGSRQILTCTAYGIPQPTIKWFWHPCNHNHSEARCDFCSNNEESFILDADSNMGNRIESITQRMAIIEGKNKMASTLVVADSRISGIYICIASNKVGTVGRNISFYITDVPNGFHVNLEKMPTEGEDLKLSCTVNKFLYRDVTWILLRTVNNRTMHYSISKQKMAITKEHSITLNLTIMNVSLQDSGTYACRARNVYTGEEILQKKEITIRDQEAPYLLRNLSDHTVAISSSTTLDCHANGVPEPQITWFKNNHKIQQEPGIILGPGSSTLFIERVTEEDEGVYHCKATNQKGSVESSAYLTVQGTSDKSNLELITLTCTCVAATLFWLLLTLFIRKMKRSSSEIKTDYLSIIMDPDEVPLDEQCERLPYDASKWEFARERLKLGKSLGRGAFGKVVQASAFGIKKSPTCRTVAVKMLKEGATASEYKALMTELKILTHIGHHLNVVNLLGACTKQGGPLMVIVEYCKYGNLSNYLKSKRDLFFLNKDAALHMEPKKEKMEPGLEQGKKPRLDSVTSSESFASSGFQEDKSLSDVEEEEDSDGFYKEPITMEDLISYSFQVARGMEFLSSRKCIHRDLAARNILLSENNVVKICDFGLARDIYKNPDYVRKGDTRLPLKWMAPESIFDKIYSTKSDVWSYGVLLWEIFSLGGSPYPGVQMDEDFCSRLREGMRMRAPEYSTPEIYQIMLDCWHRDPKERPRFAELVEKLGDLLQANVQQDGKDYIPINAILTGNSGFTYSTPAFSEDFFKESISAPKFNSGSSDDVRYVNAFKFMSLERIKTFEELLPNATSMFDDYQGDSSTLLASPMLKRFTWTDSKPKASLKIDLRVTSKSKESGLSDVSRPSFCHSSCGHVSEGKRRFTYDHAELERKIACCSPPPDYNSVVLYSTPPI

[9] = biological target: T2, Ephrin type-A receptor 3 (Homo sapiens) (UniProt P29320); experiment: Selectivity interaction (Upstate Kinase Profiler service (Millipore)) EUB0000056c EPHA3; details: at 1 µM
T2 sequence (whole entry): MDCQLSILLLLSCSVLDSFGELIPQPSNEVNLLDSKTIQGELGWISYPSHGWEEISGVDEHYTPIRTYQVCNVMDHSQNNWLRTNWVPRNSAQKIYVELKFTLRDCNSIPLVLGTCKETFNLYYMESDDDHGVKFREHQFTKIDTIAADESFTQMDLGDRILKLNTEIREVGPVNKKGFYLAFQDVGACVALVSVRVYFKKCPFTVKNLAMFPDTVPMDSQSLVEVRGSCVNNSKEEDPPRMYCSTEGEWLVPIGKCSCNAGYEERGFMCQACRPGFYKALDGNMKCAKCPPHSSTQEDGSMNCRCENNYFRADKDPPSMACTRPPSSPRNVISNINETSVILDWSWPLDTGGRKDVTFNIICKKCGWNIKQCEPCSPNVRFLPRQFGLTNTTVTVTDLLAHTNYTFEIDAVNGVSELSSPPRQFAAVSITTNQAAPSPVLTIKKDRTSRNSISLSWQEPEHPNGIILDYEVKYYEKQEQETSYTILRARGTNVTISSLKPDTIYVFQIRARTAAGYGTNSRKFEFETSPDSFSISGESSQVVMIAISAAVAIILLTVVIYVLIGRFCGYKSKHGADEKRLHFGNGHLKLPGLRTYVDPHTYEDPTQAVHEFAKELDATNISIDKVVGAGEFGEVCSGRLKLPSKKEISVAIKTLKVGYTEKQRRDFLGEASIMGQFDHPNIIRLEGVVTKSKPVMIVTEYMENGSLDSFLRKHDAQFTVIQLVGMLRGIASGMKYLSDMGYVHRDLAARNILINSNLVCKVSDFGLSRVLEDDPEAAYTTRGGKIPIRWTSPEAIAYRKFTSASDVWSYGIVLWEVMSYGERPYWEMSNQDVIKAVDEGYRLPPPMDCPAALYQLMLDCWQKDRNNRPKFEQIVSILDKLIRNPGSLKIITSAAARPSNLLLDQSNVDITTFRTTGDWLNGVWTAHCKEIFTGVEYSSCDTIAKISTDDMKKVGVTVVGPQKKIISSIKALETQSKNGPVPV

[10] = biological target: Serine/threonine-protein kinase 24 (Homo sapiens) (UniProt Q9Y6E0); experiment: Selectivity interaction (KinomeScan (DiscoverX)) EUB0000655a STK24; details: at 10 µM
Sequence of Serine/threonine-protein kinase 24 (Homo sapiens) (Q9Y6E0 whole entry, looked up): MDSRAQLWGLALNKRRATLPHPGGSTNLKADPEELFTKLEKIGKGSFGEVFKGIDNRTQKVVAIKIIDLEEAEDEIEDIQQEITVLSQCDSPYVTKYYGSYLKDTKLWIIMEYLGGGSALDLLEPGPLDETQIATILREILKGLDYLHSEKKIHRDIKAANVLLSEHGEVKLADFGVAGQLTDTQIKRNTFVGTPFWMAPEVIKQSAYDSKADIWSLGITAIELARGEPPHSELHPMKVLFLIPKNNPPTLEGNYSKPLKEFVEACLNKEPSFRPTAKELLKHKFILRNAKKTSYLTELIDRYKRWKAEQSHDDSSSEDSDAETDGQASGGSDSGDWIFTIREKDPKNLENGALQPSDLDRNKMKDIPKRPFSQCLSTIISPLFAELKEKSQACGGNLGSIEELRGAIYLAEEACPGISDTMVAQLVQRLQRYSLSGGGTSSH

Sequence of B2 bradykinin receptor (Homo sapiens) (P30411 whole entry): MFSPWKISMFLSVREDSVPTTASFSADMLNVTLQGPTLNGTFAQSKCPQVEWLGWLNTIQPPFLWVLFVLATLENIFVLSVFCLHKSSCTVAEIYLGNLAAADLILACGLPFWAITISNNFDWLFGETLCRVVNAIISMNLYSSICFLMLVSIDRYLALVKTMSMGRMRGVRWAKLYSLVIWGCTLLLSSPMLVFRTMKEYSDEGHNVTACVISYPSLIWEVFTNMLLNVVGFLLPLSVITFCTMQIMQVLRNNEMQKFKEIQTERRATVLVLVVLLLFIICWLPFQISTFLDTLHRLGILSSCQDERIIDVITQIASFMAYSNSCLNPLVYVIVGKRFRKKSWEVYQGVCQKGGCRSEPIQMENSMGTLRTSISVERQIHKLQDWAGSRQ

CC(=O)c1cc(-c2ccccc2OCC2CC2)c2ncccn12
% of control [1]: 112%

CN(C)CC#Cc1ccc2[nH]c3c(c2c1)-c1nc(N)ncc1CCC3
% of control [2]: 9.9%

CCN(CC)CCCCNc1ncc2cc(-c3cc(OC)cc(OC)c3)c(NC(=O)NC(C)(C)C)nc2n1
% of control [3]: 100%

CC[C@@H]1[C@H](F)C(=O)N[C@@H]1COc1nccc2cc(C(N)=O)c(OC)cc12 [ZIMLOVISERTIB]
% of inhibition [4]: -1.2% | % of inhibition [5]: -1.85%

Cc1cc([C@@H](C)Nc2ccccc2C(=O)O)c2nc(N3CCOCC3)cc(=O)n2c1 [AZD-6482]
% of control [6]: 95% | % of control [7]: 91%

N#Cc1cccc(-c2c[nH]c3ncnc(N4CCOCC4)c23)c1
% of control [8]: 73%

Cc1ccc(-c2ccc3c(ccc4sc5c(c43)NC[C@@H](C)NC5=O)n2)cn1
% of inhibition [9]: -1%

CN(C)CCOc1ccc(-c2nc(-c3ccncc3)c(-c3ccc4c(c3)CC/C4=N\O)[nH]2)cc1
% of control [10]: 100%
